The results in this text go back to paper PMC4762250, “Novel cis-selective and non-epimerisable C3 hydroxy azapodophyllotoxins targeting microtubules in cancer cells” (European Journal of Medicinal Chemistry, 2016).

Structures are written as SMILES. “Also recorded” adds a separate entry of the source. Read-outs that look alike come from different tables or passages of the source.

Assay [1] has as its system human breast cancer cell line MCF-7. The assay can be described thus: Oncotest propidium iodide monolayer cell proliferation assay, MCF-7. Particulars: mean absolute IC50, 96 h treatment, propidium iodide endpoint, triplicate, read-out: MCF-7 IC50. It counts as cell-based. How it is done:
(§1) The anticancer activity of compounds (8a-q) was evaluated using the Oncotest monolayer assay in the human prostate cancer cell line 22Rv1 and the human breast cancer cell line MCF-7, as an outsourced service. […] Antitumour activity was assessed after four days of treatment with the compounds using a propidium iodide based monolayer assay. Potency is expressed as absolute IC50 values, calculated by non-linear regression analysis following testing in triplicate. The seventeen inhibitors were tested at 10 concentrations in half-log increments up to 100 μM in triplicate.
(§2) A modified propidium iodide (PI) based monolayer assay was used to assess the anti-cancer activity of the compounds. Briefly, cells were harvested from exponential phase cultures, counted and plated in 96-well flat-bottom microtiter plates at a cell density of 8.000–12.000 cells/well. After a 24 h recovery period to allow the cells to resume exponential growth, 10 μl of culture medium (six control wells/plate) or culture medium with test compound were added. The compounds were applied in half-log increments at 10 concentrations in triplicate. After a total treatment period of 96 h, cells were washed with 200 μl PBS to remove dead cells and debris. Then, 200 μl of a solution containing 7 μg/mL propidium iodide (PI) was added. After an incubation period of 1–2 h at room temperature, fluorescence (FU) was measured using the EnSpire Multimode Plate Reader (excitation λ = 530 nm, emission λ = 620 nm) to quantify the amount of attached viable cells. IC50 values were calculated by 4-parameter non-linear curve fit using Oncotest Warehouse Software. For calculation of mean IC50 values the geometric mean was used.

Assay [2] deals with human prostate cancer cell line 22Rv1. The assay can be described thus: Oncotest propidium iodide monolayer cell proliferation assay, 22Rv1. It counts as cell-based. Particulars: mean absolute IC50, 96 h treatment, propidium iodide endpoint, triplicate. The method, then:
as §1, §2

For assay [3], the system named is MCF-7 and 22Rv1. The assay can be described thus: Oncotest monolayer assay, results stated over both cell lines. Format: cell-based, human. Particulars: for IC50: Homo sapiens, geometric mean over MCF-7 and 22Rv1, read-out: Mean IC50 values; for antiproliferative activity (in words): MCF-7 and 22Rv1. The method, then: as §1, §2

By IC50 is commonly meant the concentration at which inhibition is half-maximal.

In the case of `O=C1OC[C@]2(O)Nc3c(c4cccnc4c4ncccc34)[C@@H](c3ccc(SC(F)(F)F)cc3)[C@@H]12` (mixture of isomers) [Compound 8i, (9aS, 12aR, 13R) and (9aR, 12aS, 13S) 9a-hydroxy-13-(4-((trifluoromethyl)thio)phenyl)-9a,10,12a,13-tetrahydrofuro[3,4-b]pyrido [3,2-f][1,10]phenanthrolin-12(9H)-one], the IC50 is 2300 nM in assay [1] (Homo sapiens, MCF7, 96 h); 894 nM in assay [2] (Homo sapiens, 22Rv1, 96 h); less than 10000 nM in assay [3].
Turning to `O=C1OC[C@]2(O)Nc3c(c4cccnc4c4ncccc34)[C@@H](c3ccc4c(c3)OC(F)(F)O4)[C@@H]12` (mixture of isomers) [Compound 8q, (9aS, 12aR, 13R) and (9aR, 12aS, 13S) 13-((3,4-difluoromethylenedioxy)phenyl)-9a-hydroxy-9a,10,12a,13-tetrahydrofuro[3,4-b]pyrido[3,2-f][1,10]phenanthrolin-12(9H)-one], the IC50 in assay [1] (Homo sapiens, MCF7, 96 h) is 910 nM; in assay [2] (Homo sapiens, 22Rv1, 96 h), 520 nM; in assay [3] it was 500 to 1000 nM. Moreover, in assay [3], the “antiproliferative activity (in words)” value is reported as “submicromolar activity”.
Taken in the same sequence, the figures for `COc1cc(OC(F)(F)F)ccc1[C@@H]1c2c(c3cccnc3c3ncccc23)N[C@@]2(O)COC(=O)[C@@H]12` (mixture of isomers) [Compound 8o, (9aS, 12aS, 13S) and (9aR, 12aR, 13R) 9a-hydroxy-13-(2-methoxy-4-(trifluoromethoxy)phenyl)-9a,10,12a,13-tetrahydrofuro[3,4-b]pyrido[3,2-f][1,10]phenanthrolin-12(9H)-one] were 396 nM, 322 nM, less than 500 nM and “more active than etoposide in both cell lines”.
For `Cc1cc(OC(F)(F)F)cc([C@@H]2c3c(c4cccnc4c4ncccc34)N[C@@]3(O)COC(=O)[C@H]23)c1` (mixture of isomers) [Compound 8h, (9aS, 12aR, 13R) and (9aR, 12aS, 13S) 9a-hydroxy-13-(3-methyl-5-trifluoromethoxyphenyl)-9a,10,12a,13-tetrahydrofuro[3,4-b]pyrido[3,2-f][1,10] phenanthrolin-12(9H)-one], in that order: 475 nM, 242 nM, less than 500 nM and “more active than etoposide in both cell lines”.
Taken in the same sequence, the figures for `O=C1OC[C@]2(O)Nc3c(c4cccnc4c4ncccc34)[C@@H](c3cccc(S(F)(F)(F)(F)F)c3)[C@@H]12` (mixture of isomers) [Compound 8g, (9aS, 12aR, 13R) and (9aR, 12aS, 13S) 9a-hydroxy-13-(3-(pentafluorosulfanyl)phenyl)-9a,10,12a,13-tetrahydrofuro[3,4-b]pyrido[3,2-f][1,10]phenanthrolin-12(9H)-one] were 589 nM, 311 nM, less than 500 nM and “more active than etoposide in both cell lines; also recorded: submicromolar activity”.
With `O=C1OC[C@]2(O)Nc3c(c4cccnc4c4ncccc34)[C@@H](c3cc(C(F)(F)F)cc(C(F)(F)F)c3)[C@@H]12` (mixture of isomers) [Compound 8j, (9aS, 12aR, 13R) and (9aR, 12aS, 13S) 13-(3,5-bis(trifluoromethyl)phenyl)-9a-hydroxy-9a,10,12a,13-tetrahydrofuro[3,4-b]pyrido[3,2-f][1,10] phenanthrolin-12(9H)-one], the IC50 in assay [1] (Homo sapiens, MCF7, 96 h) is 643 nM; in assay [2] (Homo sapiens, 22Rv1, 96 h), 380 nM; in assay [3], less than 500 nM. Also, in assay [3], the “antiproliferative activity (in words)” value is on record as “submicromolar activity”.
`O=C1OC[C@]2(O)Nc3c(c4cccnc4c4ncccc34)[C@@H](c3cccc(C(F)(F)F)c3)[C@@H]12` (mixture of isomers) [Compound 8f, (9aS, 12aR, 13R) and (9aR, 12aS, 13S) 9a-hydroxy-13-(3-(trifluoromethyl)phenyl)-9a,10,12a,13-tetrahydrofuro[3,4-b]pyrido[3,2-f][1,10]phenanthrolin-12(9H)-one]: the IC50 was 825 nM in assay [1] (Homo sapiens, MCF7, 96 h); 510 nM in assay [2] (Homo sapiens, 22Rv1, 96 h); 500 to 1000 nM in assay [3].
For `CSc1ccc([C@@H]2c3c(c4cccnc4c4ncccc34)N[C@@]3(O)COC(=O)[C@H]23)cc1` (mixture of isomers) [Compound 8a, (9aS, 12aR, 13R) and (9aR, 12aS, 13S) 9a-hydroxy-13-(4-(methylthio)phenyl)-9a,10,12a,13-tetrahydrofuro[3,4-b]pyrido[3,2-f][1,10]phenanthrolin-12(9H)-one], in that order: 648 nM, 855 nM and 500 to 1000 nM.
Take `O=C1OC[C@]2(O)Nc3c(c4cccnc4c4ncccc34)[C@@H](c3ccc(S(F)(F)(F)(F)F)cc3)[C@@H]12` (mixture of isomers) [Compound 8n, (9aS, 12aR, 13R) and (9aR, 12aS, 13S) 9a-hydroxy-13-(4-(pentafluorosulfanyl)phenyl)-9a,10,12a,13-tetrahydrofuro[3,4-b]pyrido[3,2-f][1,10] phenanthrolin-12(9H)-one]: the IC50 is 857 nM in assay [1] (Homo sapiens, MCF7, 96 h); 590 nM in assay [2] (Homo sapiens, 22Rv1, 96 h); 500 to 1000 nM in assay [3]. The “antiproliferative activity (in words)” value in assay [3] was “submicromolar activity”.
For `CCOc1ccc([C@@H]2c3c(c4cccnc4c4ncccc34)N[C@@]3(O)COC(=O)[C@H]23)cc1C(F)(F)F` (mixture of isomers) [Compound 8k, (9aS, 12aR, 13R) and (9aR, 12aS, 13S) 13-(4-ethoxy-3-(trifluoromethyl)phenyl)-9a-hydroxy-9a,10,12a,13-tetrahydrofuro[3,4-b]pyrido[3,2-f][1,10] phenanthrolin-12(9H)-one], in that order: 355 nM, 295 nM, less than 500 nM and “more active than etoposide in both cell lines”.
As to `COc1cc([C@@H]2c3c(c4cccnc4c4ncccc34)N[C@@]3(O)COC(=O)[C@H]23)cc2c1OCO2` (mixture of isomers) [Compound 8p, (9aS, 12aR, 13R) and (9aR, 12aS, 13S) 9a-hydroxy-13-((5-methoxy-3,4-methylenedioxy)phenyl)-9a,10,12a,13-tetrahydrofuro[3,4-b]pyrido[3,2-f][1,10]phenanthrolin-12(9H)-one], the IC50 in assay [1] (Homo sapiens, MCF7, 96 h) is 7300 nM; in assay [1], 7250 nM; in assay [2] (Homo sapiens, 22Rv1, 96 h), 4000 nM; in assay [2] it was 4000 nM; in assay [3] it was less than 10000 nM.
Consider `Cc1ccc(OC(F)(F)F)cc1[C@@H]1c2c(c3cccnc3c3ncccc23)N[C@@]2(O)COC(=O)[C@H]12` (mixture of isomers) [Compound 8m, (9aS, 12aR, 13R) and (9aR, 12aS, 13S) 9a-hydroxy-13-(2-methyl-5-(trifluoromethoxy)phenyl)-9a,10,12a,13-tetrahydrofuro[3,4-b]pyrido[3,2-f][1,10]phenanthrolin-12(9H)-one], for which the IC50 is 3310 nM in assay [1] (Homo sapiens, MCF7, 96 h); 2840 nM in assay [2] (Homo sapiens, 22Rv1, 96 h); less than 10000 nM in assay [3].
Taken in the same sequence, the figures for `O=C1OC[C@]2(O)Nc3c(c4cccnc4c4ncccc34)[C@@H](c3ccc(OC(F)F)cc3)[C@@H]12` (mixture of isomers) [Compound 8l, (9aS, 12aR, 13R) and (9aR, 12aS, 13S) 13-(4-(difluoromethoxy)phenyl)-9a-hydroxy-9a,10,12a,13-tetrahydrofuro[3,4-b]pyrido[3,2-f][1,10]phenanthrolin-12(9H)-one] were 901 nM, 719 nM and 500 to 1000 nM.
Turning to `O=C1OC[C@]2(O)Nc3c(c4cccnc4c4ncccc34)[C@@H](c3cccc(OC(F)(F)F)c3)[C@@H]12` (mixture of isomers) [Compound 8c, (9aS, 12aR, 13R) and (9aR, 12aS, 13S) 9a-hydroxy-13-(3-(trifluoromethoxy)phenyl)-9a,10,12a,13-tetrahydrofuro[3,4-b]pyrido[3,2-f][1,10]phenanthrolin-12(9H)-one], the IC50 is 466 nM in assay [1] (Homo sapiens, MCF7, 96 h) and 257 nM in assay [2] (Homo sapiens, 22Rv1, 96 h).
Regarding `O=C1OC[C@]2(O)Nc3c(c4cccnc4c4ncccc34)[C@@H](c3ccc(OC(F)(F)F)cc3)[C@@H]12` (mixture of isomers) [Compound 8d, (9aS, 12aR, 13R) and (9aR, 12aS, 13S) 9a-hydroxy-13-(4-(trifluoromethoxy)phenyl)-9a,10,12a,13-tetrahydrofuro[3,4-b]pyrido[3,2-f][1,10]phenanthrolin-12(9H)-one], the IC50 in assay [1] (Homo sapiens, MCF7, 96 h) is 424 nM; in assay [2] (Homo sapiens, 22Rv1, 96 h), 239 nM.
